Laboratory results: the supplement of paper PMC10307832

Legend:
Assay in all cases: relative viability (nuclei count vs DMSO), 5 days (fraction); higher = more cells survive
[1] = compound: NC(=O)[C@@H](CCC(F)(F)F)N(Cc1ccc(-c2ncon2)cc1F)S(=O)(=O)c1ccc(Cl)cc1 [Avagacestat] + O=C(c1cc(Cc2n[nH]c(=O)c3ccccc23)ccc1F)N1CCN(C(=O)C2CC2)CC1 [Olaparib] (partner 8 µM)
Summary of the method: (§1)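 Relative viability was taken as the ratio of nuclei in treated wells to nuclei in vehicle wells. Lung cancer cell lines in 1536-well plates received compounds by pin tool one day after seeding, either one drug alone or a fixed anchor-drug dose plus five library-drug doses (not always all listed) in √10 steps. Nuclei were counted on 4× images after 5 days of treatment, and values are medians of duplicate plates.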

[2] = compound: NC(=O)[C@@H](CCC(F)(F)F)N(Cc1ccc(-c2ncon2)cc1F)S(=O)(=O)c1ccc(Cl)cc1 [Avagacestat] + Nc1nc2[nH]cc(CCc3ccc(C(=O)N[C@@H](CCC(=O)O)C(=O)O)cc3)c2c(=O)[nH]1 [Pemetrexed] (partner 0.2 µM)
Summary of the method: as §1

[3] = compound: NC(=O)[C@@H](CCC(F)(F)F)N(Cc1ccc(-c2ncon2)cc1F)S(=O)(=O)c1ccc(Cl)cc1 [Avagacestat] + O=C(CCCCCCC(=O)Nc1ccccc1)NO [Vorinostat] (partner 1 µM)
Summary of the method: as §1

[4] = compound: NC(=O)[C@@H](CCC(F)(F)F)N(Cc1ccc(-c2ncon2)cc1F)S(=O)(=O)c1ccc(Cl)cc1 [Avagacestat] + C[C@]1(O)C[C@@H](c2nc(-c3ccc4ccc(-c5ccccc5)nc4c3)c3c(N)nccn32)C1 [Linsitinib] (partner 1 µM)
Summary of the method: as §1

Cell Line | relative viability ([1]; first compound 0.08 µM) | relative viability ([1]; first compound 0.253 µM) | relative viability ([1]; first compound 0.8 µM) | relative viability ([1]; first compound 2.53 µM) | relative viability ([1]; first compound 8 µM) | relative viability ([2]; first compound 0.08 µM) | relative viability ([2]; first compound 0.253 µM) | relative viability ([2]; first compound 0.8 µM) | relative viability ([2]; first compound 2.53 µM) | relative viability ([2]; first compound 8 µM) | relative viability ([3]; first compound 0.08 µM) | relative viability ([3]; first compound 0.253 µM) | relative viability ([3]; first compound 0.8 µM) | relative viability ([3]; first compound 2.53 µM) | relative viability ([3]; first compound 8 µM) | relative viability ([4]; first compound 0.08 µM) | relative viability ([4]; first compound 0.253 µM) | relative viability ([4]; first compound 0.8 µM) | relative viability ([4]; first compound 2.53 µM) | relative viability ([4]; first compound 8 µM)
LXF-289 | 1.41 | 1.41 | 1.15 | 1.08 | 1.04 | 0.986 | 0.947 | 0.936 | 0.905 | 0.799 | 0.954 | 0.884 | 0.791 | 0.921 | 0.86 | 1.02 | 1.02 | 0.957 | 1.02 | 0.82
NCI-H23 | 0.302 | 0.316 | 0.315 | 0.335 | 0.296 | 0.966 | 0.863 | 0.905 | 0.801 | 0.31 | 0.921 | 0.66 | 0.665 | 0.69 | 0.592 | 0.759 | 0.636 | 0.675 | 0.548 | 0.456
NCI-H322M | 0.827 | 0.774 | 0.783 | 0.685 | 0.668 | 0.621 | 0.619 | 0.632 | 0.608 | 0.569 | 0.811 | 0.779 | 0.855 | 0.821 | 0.777 | 0.826 | 0.892 | 1.03 | 0.823 | 0.681
NCI-H358 | 0.704 | 0.559 | 0.655 | 0.596 | 0.562 | 0.168 | 0.197 | 0.18 | 0.172 | 0.168 | 0.911 | 0.762 | 0.733 | 0.557 | 0.679 | 0.774 | 0.822 | 0.839 | 0.687 | 0.724
NCI-H441 | 0.679 | 0.592 | 0.656 | 0.803 | 0.613 | 0.269 | 0.252 | 0.272 | 0.271 | 0.298 | 0.991 | 0.932 | 0.899 | 0.761 | 0.595 | 0.697 | 0.565 | 0.564 | 0.49 | 0.461
NCI-H460 | 0.549 | 0.565 | 0.532 | 0.385 | 0.36 | 0.0657 | 0.0554 | 0.0635 | 0.0567 | 0.0624 | 1.37 | 0.69 | 0.828 | 0.554 | 0.57 | 1.01 | 0.896 | 1.35 | 0.673 | 0.588
NCI-H520 | 0.337 | 0.367 | 0.335 | 0.338 | 0.251 | 0.792 | 0.801 | 0.844 | 0.703 | 0.559 | 0.8 | 0.767 | 0.773 | 0.637 | 0.639 | 1.15 | 1.09 | 0.933 | 0.864 | 0.889
NCI-H596 | 0.741 | 0.62 | 0.804 | 0.613 | 0.573 | 0.594 | 0.56 | 0.578 | 0.528 | 0.503 | 0.591 | 0.643 | 0.609 | 0.588 | 0.627 | 1.15 | 1.21 | 1 | 0.827 | 0.986
